Measured values as given in patent publication US9468670B2, “Melatonin-based treatment and diagnosis of bile duct disease” (Texas A&M University System, priority 2011, dated 2016).

How the values were obtained:
[1] = Liver weight, body weight and liver to body weight ratio in normal and BDL rats; format: in vivo, rat; details: tap water containing melatonin (20 mg/L) for 1 week
Protocol: Male 344 Fischer rats (150-175 g) were purchased from Charles River (Wilmington, Mass.) and kept in a temperature-controlled environment (22° C.) with 12:12 hr light/dark cycles. Animals were fed ad libitum and had free access to food and drinking water. […] Before each surgical procedure, animals were anesthetized with sodium pentobarbital (50 mg/kg BW, IP). All animal experiments were performed in accordance with a protocol approved by the Scott and White and Texas A&M Health Science Center Institutional Animal Care and Use Committee and conform to the Guide for the Care and Use of Laboratory Animals published by the US National Institutes of Health (NIH Publication No. 85-23, revised 1996). In all animals, wet liver weight, body weight, wet liver weight to body weight ratio, and an index of liver cell growth including cholangiocytes were measured ([…] et al., 1988).

[2] = tested on: large cholangiocyte lines; test: PCNA expression and PKA, ERK1/2 phosphorylation (immunoblots) in immortalized large cholangiocytes; format: cell-based, mouse; details: melatonin 10^−11 M, 48 hours
Description: The expression of MT1 and MT2 receptors in immortalized large cholangiocytes was first evaluated by immunofluorescence (Francis et al., 2008). Images were visualized using an Olympus IX-71 confocal microscope. For all immunoreactions, negative controls (with normal serum from the same species substituted for the primary antibody) were included. It was next evaluated by commercially available radioimmunoassay (RIA) kits ([…] et al., 1998; Kato et al., 1992; […] et al., 1999; […] et al., 2004) for cAMP levels ([…] et al., 1998; Kato et al., 1992; […] Shiu et al., 2010). […] […] et al., 1992; Ramirez-Rodriguez et al., 2009; […], 1999). […] Shiu et al., 2010) before evaluating by immunoblots (Francis et al., 2008) the expression of PCNA and the phosphorylation of PKA and EKR1/2.

miR-34a = test: miRNA expression in melatonin treated xenograft tumor tissues; details: melatonin treatment in vivo
Protocol: Methods: miRNA expression in normal human cholangiocytes (HiBECs), and the CCA cell lines Mz-ChA-1 and TFK cells, as well as melatonin treated xenograft tumor tissues were evaluated using a hybridization-based miRNA microarray. The expression of selected mature miRNAs was also assessed by real-time PCR. The effect of selected miRNAs on cell growth and invasion was assessed using miRNA modulators to alter cellular expression. Cell migration and invasion through a matrigel layer was quantitated using commercial assays. BCL-2, period homolog 1 (PER1) and tissue inhibitor of metalloproteinases 3 (TIMP-3) mRNA expression was quantitated by real-time PCR analysis.

[3] = H&E evaluation of organ damage in melatonin-treated rats; format: in vivo, rat; details: normal and BDL rats treated with melatonin
Protocol: The following was also evaluated in paraffin-embedded liver sections ([…]): (i) lobular necrosis; (ii) the intrahepatic bile duct mass (IBDM) of large ([…]) (Alpini et al., 1997; Glaser et al., 2009) cholangiocytes, the only biliary cell types proliferating following BDL (Alpini et al., 1998; Glaser et al., 2009) and (iii) the percentage of cholangiocyte apoptosis by semiquantitative terminal deoxynucleotidyltransferase biotin-dUTP nick-end labeling (TUNEL) kit (Apoptag; Chemicon International, Inc.) (Glaser et al., 2010). Lobular necrosis was measured in liver sections stained for hematoxylin and eosin (Glaser et al., 2010). Lobular necrosis was scored as follows: −=0 foci; +/−=<2 foci; +=2-4 foci; and ++=>4 foci (Glaser et al., 2010). The IBDM was measured as area occupied by CK-19 positive-bile duct/total area×100 (Glaser et al., 2010). It was also evaluated by H&E of sections if melatonin administration induces the damage of kidney, heart, stomach, spleen and small and large intestine of normal and BDL rats. The sections from the selected were evaluated in a blinded-fashion by two board-certified pathologists by a BX-51 light microscope (Olympus, Tokyo, Japan) equipped with a camera.

cholangiocytes = test: Biliary proliferation (PCNA, IBDM) and apoptosis (TUNEL) in Morpholino-treated rats; format: in vivo, rat; details: normal rats, 1 mg/Kg BW/day for 1 week via portal vein catheter
Protocol: In separate experiments, normal rats treated with Vivo-Morpholino sequences of AANAT (5′-[…] (SEQ ID NO:1), to reduce the biliary expression of AANAT) or Morpholino mismatched (5′-[…] (SEQ ID NO:2)) (Gene Tools LCC) (1 mg/Kg BW/day) for 1 week via an implanted portal vein catheter. Serum, liver tissue, cholangiocytes, kidney, spleen, small intestine, stomach and heart were collected. Since our goal was to knock-down AANAT expression in the liver without inhibiting AANAT expression in other organs, we used a lower dose (1 mg/Kg/day) of Vivo-Morpholino than that described in the original study (3.0 mg/kg/day (Arora et al., 2002). This approach minimizes the amount of Vivo-Morpholino that circulates outside of the liver after slow infusion into the portal vein. See below for the surgical procedure for the implantation of the portal vein catheter by which AANAT Vivo-Morpholino or Morpholino mismatched was administered.
Biliary proliferation was determined by measurement of the percentage of PCNA-positive cholangiocytes by immunohistochemistry, and intrahepatic bile duct mass (IBDM) by immunohistochemistry for CK-19 (Mancinelli et al., 2010). Biliary apoptosis was evaluated by semiquantitative terminal deoxynucleotidyltransferase biotin-dUTP nick-end labeling (TUNEL) kit (Chemicon International, Inc., Temecula, Calif.) (Mancinelli et al., 2010). IBDM was determined as the area occupied by CK-19 positive-bile duct/total area×100 (Mancinelli et al., 2010). The morphological changes/damage in liver, spleen, kidney, heart, stomach, and small intestine were evaluated from AANAT Vivo-Morpholino- or mismatch-treated rats by H&E staining. The serum levels of the transaminases, glutamate pyruvate transaminases (SGPT) and glutamic oxaloacetic transaminase (SGOT), alkaline phosphatase (ALP) and total bilirubin were evaluated using a Dimension RxL Max Integrated Chemistry system (Dade Behring Inc., Deerfield Ill.), Chemistry Department, Scott & White.

Molecule	Body weight ([1]; BDL rats)	Liver to body weight ratio ([1]; BDL rats)	Liver weight ([1]; BDL rats)	Body weight ([1]; normal rats)	PCNA expression and phosphorylation of PKA and ERK2 (but not ERK1) [2]	miR-34a expression in Mz-ChA-1 xenograft tumor (miR-34a)	Morphological damage of kidney, heart, stomach, spleen and small and large intestine [3]	% IBDM (cholangiocytes)	% PCNA-positive cholangiocytes (cholangiocytes)	% apoptotic cholangiocytes (cholangiocytes)
COc1ccc2[nH]cc(CCNC(C)=O)c2c1 [melatonin]	150.1 ± 7.9 gm	4.5 ± 0.1	6.7 ± 0.1 gm	206.6 ± 3.9 gm	decreased	significant reduction	No morphological damage			
AANAT Vivo-Morpholino: Vivo-Morpholino sequence of AANAT 5′-GTTCCCCAGCTTTGGAAGTGGTCCC (SEQ ID NO:1), to reduce the biliary expression of AANAT (all phosphorodiamidate morpholino (PMO); Vivo-Morpholino delivery moiety attached, position not given here, further chemistry not fully specified)								0.45 ± 0.10 %	8.98 ± 0.6 %	<5%
